Among the test systems are 786-0 renal; CAKI-1 renal; EKVX NSCLC; HCT-15 colon; K-562 leukemia; LOX IMVI melanoma; MCF7 breast; MOLT-4 leukemia; NCI-H226 lung; NCI-H23 lung; NCI-H522 lung; OVCAR-5 ovarian; RXF 393 renal; SF-295 CNS; U251 CNS; UACC-257 melanoma; UACC-62 melanoma; RPMI-8226 leukemia.
Holding throughout (assay): NCI anticancer screen, dose series, 48 h

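Briefly, cells in 96-well plates were exposed to five compound concentrations for 48 h, and endpoints were estimated by linear interpolation. The concentration for full growth arrest is given as TGI.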

With `CC/C(=N/O)c1ccc(Br)s1`, the TGI in the test on 786-0 renal, with CAKI-1 renal, in the test with EKVX NSCLC, in the test with HCT-15 colon, with K-562 leukemia and with LOX IMVI melanoma was greater than 100 µM in each case. Further, the TGI in the test on MCF7 breast, with MOLT-4 leukemia, with NCI-H226 lung, in the test with NCI-H23 lung, in the test on NCI-H522 lung and in the test with OVCAR-5 ovarian was greater than 100 µM throughout. Besides, the TGI in the test with RXF 393 renal, in the test on SF-295 CNS, with U251 CNS, with UACC-257 melanoma and in the test on UACC-62 melanoma was greater than 100 µM throughout.

On to `CSc1ccc(C2C(Cl)C(=O)N2NC(=O)c2c(Cl)c(Cl)c(Cl)c(Cl)c2-c2nc3ccccc3[nH]2)cc1` (configuration not stated), for which the TGI in the test with 786-0 renal was 76.8 µM; in the test on CAKI-1 renal it was 42.8 µM; in the test with EKVX NSCLC, 37.9 µM; with HCT-15 colon it was 60.4 µM; in the test on K-562 leukemia, greater than 100 µM; with LOX IMVI melanoma, 15.6 µM. In addition, the TGI in the test on MCF7 breast is greater than 100 µM; with MOLT-4 leukemia, 68.7 µM; in the test on NCI-H226 lung, 38.5 µM; with NCI-H23 lung, 43.1 µM; with NCI-H522 lung, 4.87 µM; in the test on OVCAR-5 ovarian, 53.4 µM. Further, the TGI was 5.01 µM with RXF 393 renal, greater than 100 µM in the test with SF-295 CNS, 51.3 µM in the test with UACC-257 melanoma and greater than 100 µM with UACC-62 melanoma.

In the case of `O=C(Nc1ccc2nc(-c3ccccc3)cn2c1)Oc1ccccc1`, the TGI in the test with 786-0 renal, in the test on CAKI-1 renal, in the test on EKVX NSCLC, in the test with HCT-15 colon, with K-562 leukemia and with LOX IMVI melanoma was greater than 100 µM throughout. In addition, the TGI with MCF7 breast was greater than 100 µM; in the test with MOLT-4 leukemia, greater than 100 µM; with NCI-H226 lung, greater than 100 µM; in the test with NCI-H23 lung it was greater than 100 µM; in the test on NCI-H522 lung, 90.2 µM; with OVCAR-5 ovarian, greater than 100 µM. The TGI in the test on RXF 393 renal is 7.31 µM; in the test on SF-295 CNS, greater than 100 µM; in the test on U251 CNS, greater than 100 µM; with UACC-257 melanoma it was greater than 100 µM; in the test with UACC-62 melanoma it was greater than 100 µM.

In the case of `Cc1nc(N)c(N2CCNCC2)c(=O)[nH]1`, the TGI with 786-0 renal, with EKVX NSCLC, in the test on HCT-15 colon, in the test with K-562 leukemia, in the test with LOX IMVI melanoma and in the test with MCF7 breast was greater than 100 µM throughout. Further, the TGI in the test with MOLT-4 leukemia, with NCI-H226 lung, in the test on NCI-H23 lung, with NCI-H522 lung, with OVCAR-5 ovarian and in the test with RPMI-8226 leukemia was greater than 100 µM each time. Also, the TGI with SF-295 CNS, with U251 CNS and in the test on UACC-257 melanoma was greater than 100 µM in each case.

In the case of `COc1ccc2c(c1)OCc1c-2oc2ccccc2c1=O`, the TGI with 786-0 renal, in the test on CAKI-1 renal, in the test with EKVX NSCLC, in the test on HCT-15 colon, in the test on K-562 leukemia and in the test with LOX IMVI melanoma was greater than 100 µM throughout. For the same compound, the TGI with MCF7 breast, in the test with MOLT-4 leukemia, with NCI-H226 lung, in the test on NCI-H522 lung, with OVCAR-5 ovarian and with RPMI-8226 leukemia was greater than 100 µM in each case. For the same compound, the TGI in the test on SF-295 CNS, in the test on U251 CNS, in the test on UACC-257 melanoma and with UACC-62 melanoma was greater than 100 µM throughout.

On to `COc1ccc(-c2c(C(C)=O)c(-c3ccccc3)n(C3OC(COC(C)=O)C(OC(C)=O)C(OC(C)=O)C3OC(C)=O)c(=S)c2C#N)cc1` (configuration not stated), for which the TGI in the test with 786-0 renal, in the test with CAKI-1 renal, in the test on EKVX NSCLC, in the test with HCT-15 colon, in the test on K-562 leukemia and in the test with LOX IMVI melanoma was greater than 100 µM throughout. The TGI in the test on MCF7 breast, with MOLT-4 leukemia, in the test with NCI-H226 lung, with NCI-H23 lung, in the test on NCI-H522 lung and in the test on OVCAR-5 ovarian was greater than 100 µM throughout. Also, the TGI with RXF 393 renal, with SF-295 CNS, in the test with U251 CNS, with UACC-257 melanoma and in the test on UACC-62 melanoma was greater than 100 µM throughout.

Regarding `Cc1[nH]c(=O)[nH]c(=S)c1C(=O)NC(C)(CO)CO`, the TGI with 786-0 renal, with CAKI-1 renal, in the test with EKVX NSCLC, in the test on HCT-15 colon, in the test with K-562 leukemia and in the test with LOX IMVI melanoma was greater than 100 µM throughout. Further, the TGI with MCF7 breast, in the test with MOLT-4 leukemia, with NCI-H226 lung, in the test with NCI-H23 lung, with NCI-H522 lung and in the test with OVCAR-5 ovarian was greater than 100 µM throughout. The TGI with RXF 393 renal, with SF-295 CNS, in the test with U251 CNS, in the test with UACC-257 melanoma and in the test on UACC-62 melanoma was greater than 100 µM in each case.

Consider `Cc1ccc2nc3ccccc3c(C3C4C(=O)N(c5ccc(Br)cc5Cl)C(=O)C4ON3C(C(N)=O)c3ccccc3)c2c1` (configuration not stated), for which the TGI with 786-0 renal is greater than 25 µM; with CAKI-1 renal it was 10.5 µM; in the test on EKVX NSCLC, 15.5 µM; with HCT-15 colon, 19.5 µM; in the test on K-562 leukemia, greater than 25 µM; with LOX IMVI melanoma it was greater than 25 µM. The TGI is greater than 25 µM in the test with MCF7 breast; greater than 25 µM with MOLT-4 leukemia; greater than 25 µM in the test with NCI-H226 lung; 6.86 µM with NCI-H23 lung; greater than 25 µM in the test on NCI-H522 lung; greater than 25 µM in the test on OVCAR-5 ovarian. For the same compound, the TGI in the test on RXF 393 renal, in the test with SF-295 CNS, in the test on U251 CNS, in the test with UACC-257 melanoma and in the test with UACC-62 melanoma was greater than 25 µM in each case.

Values taken from PubChem BioAssay (NCI).
